From PubChem BioAssay AID1189 (EPA DSSTox, 2008)
Calls of active or inactive are those of the source.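 Rule for the calls: active = a tumor-causing dose value with its tumor site reported for any sex and species group of a rodent or other animal cancer study; inconclusive = only studies judged inadequate by the national testing program; inactive = tested in at least one study, none positive.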

assay: DSSTox (CPDBAS) Carcinogenic Potency Database Summary SingleCellCall Results; conditions: animal chronic carcinogenicity bioassays, CPDB summary call
Method in brief: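 Categorical carcinogenicity call compiled from published chronic rodent and other animal cancer bioassays; based on the most positive result across experiments for each sex-species, assigned on minimal evidence for or against activity.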

Compound	outcome
O=S(=O)(Oc1ccc(Cl)cc1Cl)c1ccccc1	inactive
CC1=C(CC(=O)O)c2cc(F)ccc2/C1=C\c1ccc(S(C)(=O)=O)cc1	inactive
S=C(SSSSSSC(=S)N1CCCCC1)N1CCCCC1	inactive
Cc1ccc2cc3c(ccc4ccccc43)c3c2c1CC3	active; inactive
Cc1ccc(N)cc1Cl	inactive; active
O=C1C=C(N2CC2)C(=O)C(N2CC2)=C1N1CC1	active
C#C[C@]1(O)CC[C@H]2[C@@H]3CCc4cc(O)ccc4[C@H]3CC[C@@]21C	active; inactive
O=C1O[C@@H](CN2CCOCC2)CN1/N=C/c1ccc([N+](=O)[O-])o1	active
C[C@@H]1C[C@H](C)CN(S(=O)(=O)c2ccc(Cl)c(C(=O)O)c2)C1	active
C=C1C(CCl)(CCl)C2(Cl)C(Cl)C(Cl)C1(Cl)C2(Cl)Cl (stereo unspecified)	active; inactive
CNNC	active
CN(C)CCOC(C)(c1ccccc1)c1ccccn1 (stereo unspecified)	active; inactive
NC(=O)N(CCc1ccccc1)N=O	active
c1ccc2sc(SNC3CCCCC3)nc2c1	inactive
CC(O)CN(CC(C)O)CC(C)O (stereo unspecified)	inactive; active
O=[N+]([O-])c1cccc2cccnc12	active; inactive
c1ccc2c(c1)[nH]c1ccccc12	active
CCN(N=O)C(=O)NCCO	active
CCN(CC)C(=S)S[Te](SC(=S)N(CC)CC)(SC(=S)N(CC)CC)SC(=S)N(CC)CC	inactive
Nc1ccc2nc3ccccn3c2n1	active; inactive
C=CCN(N=O)C(N)=O	active
CC1(C)C(=O)Nc2ccc(C3=NNC(=O)CC3)cc21	active
O=[N+]([O-])c1ccc(Cl)c([N+](=O)[O-])c1	inactive
CC(O)CNC(=O)N(N=O)C(C)Cl (stereo unspecified)	active
C=COC(N)=O	active; inactive

Compound	outcome
O=NN1CCOC1	active; inactive
C=C1C/C(=C/C)C(=O)O[C@@H]2CCN3CC=C(COC(=O)[C@@]1(O)CO)[C@H]23	active; inactive
CCCCN(N=O)C(=N)N[N+](=O)[O-]	inactive
O=C1NCCN1	inactive
ClC1=C(Cl)[C@]2(Cl)[C@@H]3[C@@H]4C[C@@H]([C@H]5O[C@@H]45)[C@@H]3[C@@]1(Cl)C2(Cl)Cl	active
Nc1nc(N)nc(-c2ccc([N+](=O)[O-])o2)n1	active
N#CC(c1ccccc1)c1ccccc1	inactive
Nc1nc(-c2ccc([N+](=O)[O-])cc2)cs1	active
Cc1cc(-c2ccc(N)c(C)c2)ccc1N	active
COC1[C@@H](O[C@@H]2O[C@H](C)[C@@H](O[C@H]3C[C@@](C)(O)[C@H](OC(=O)CC(C)C)[C@H](C)O3)[C@H](N(C)C)[C@H]2O)[C@@H](CC=O)C[C@@H](C)[C@@H](O)/C=C/C=C/C[C@@H](C)OC(=O)C[C@H]1OC(C)=O (stereo partly specified)	inactive; active
COc1ccccc1N1CCN(CCCNc2cc(=O)n(C)c(=O)n2C)CC1	inactive
CC1CC(C)(C)CC(OOC(C)(C)C)(OOC(C)(C)C)C1 (stereo unspecified)	inactive; active
Cn1cnc([N+](=O)[O-])c1Sc1ncnc2nc[nH]c12	active
O=C(O)CCCc1ccc(N(CCCl)CCCl)cc1	active
CC(Cl)(Cl)Cl	inactive
CN=[N+](C)[O-]	active
CN(C)CCC(c1ccc(Cl)cc1)c1ccccn1 (stereo unspecified)	inactive
CCCCN(CCCC)N=O	active
Cc1ccccc1N	active
Clc1nc(Cl)nc(Nc2ccccc2Cl)n1	inactive
CCCCCNN	active
[N-]=[N+]=[N-]	inactive; active
CC(=O)Nc1nc(NC(C)=O)nc(-c2ccc([N+](=O)[O-])o2)n1	active
CCCCCCCCCCC(C)c1ccc(S(=O)(=O)O)cc1 (stereo unspecified)	inactive
CC(C)CCCCCCOC(=O)c1ccccc1C(=O)OCCCCCCC(C)C	active; inactive

Compound	outcome
OC(O)C(Cl)(Cl)Cl	active; inactive
O=CCCCC=O	inactive; active
CCn1nc(C)c2c1C(c1ccccc1)=NCC(=O)N2	active
CCNc1nc(Cl)nc(NCC)n1	inactive
CN(N=O)c1ccccn1	active
C=CCO	inactive; active
C/C=C/C=C/C=O	active
CC(C)(C)NCC(O)c1ccc(O)c(CO)c1 (stereo unspecified)	active; inactive
CCOC(=O)C1OC1(C)c1ccccc1 (stereo unspecified)	inactive
NC(=O)c1ccncc1	inactive
OC[P+](CO)(CO)CO	inactive; active
CCCCN(CCCCO)N=O	active; inactive
FC(F)OC(F)(F)C(F)Cl (stereo unspecified)	inactive
O=C([O-])c1cc(N=Nc2ccc(-c3ccc(N=Nc4c(O)ccc(N=Nc5cc(S(=O)(=O)[O-])ccc5[O-])c4[O-])cc3)cc2)ccc1O.[Cu+2].[Na+].[Na+]	active; inactive
CCC1C(=O)OCC1Cc1cncn1C (stereo unspecified)	inactive
O=NN1CCOC(O)C1 (stereo unspecified)	inactive; active
CC1(C)[C@@H](OC2O[C@H](C(=O)O)[C@@H](O)[C@H](O)[C@H]2O[C@H]2O[C@H](C(=O)O)[C@@H](O)[C@H](O)[C@H]2O)CC[C@]2(C)[C@H]3C(=O)C=C4[C@@H]5C[C@@](C)(C(=O)O)CC[C@]5(C)CC[C@@]4(C)[C@]3(C)CC[C@@H]12 (stereo partly specified)	inactive
CC(=O)Nc1ccc2c(c1)C(=O)c1ccccc1-2	active
O=[N+]([O-])c1ccc2nc[nH]c2c1	active
CC(C)C/C=N/N(C)C=O	active
CN1C(=O)OC(C)(C)C1=O	inactive
O=S(=O)(Oc1ccc(Cl)cc1)c1ccc(Cl)cc1	inactive
C=C(F)F	inactive
OCl	inactive
CCN(CC)C(=O)/C(Cl)=C(\C)OP(=O)(OC)OC	inactive

Compound	outcome
C[C@H]([C@H](O)CCC(C)(C)O)[C@H]1CC[C@@]2(O)C3=CC(=O)[C@@H]4C[C@@H](O)[C@@H](O)C[C@]4(C)[C@H]3CC[C@]12C	active; inactive
CCCCC(CC)COC(=O)c1ccccc1C(=O)OCC(CC)CCCC (stereo unspecified)	active
CCN(CC)CC#CC(C)(C)OC(=O)C(O)(c1ccccc1)C1CCCCC1 (stereo unspecified)	inactive; active
C=CCOCC1CO1 (stereo unspecified)	active
O=CNc1nc(-c2ccc([N+](=O)[O-])o2)cs1	active
Cc1ccc(N=C=O)cc1N=C=O	active; inactive
O=NN1CN2CN(C1)CN(N=O)C2	inactive
C=C1C[C@]23C[C@@]1(O)CC[C@H]2[C@@]12C=C[C@H](O)[C@@](C)(C(=O)O1)[C@H]2[C@@H]3C(=O)O	inactive
CC(C)NCC(O)COc1cccc2ccccc12 (stereo unspecified)	inactive
Cc1cccc(OCC(O)CNC(C)(C)C)c1C (stereo unspecified)	inactive
NC(=O)N(CCO)N=O	active; inactive
CCCN(N)C=O	active
CC1CN(N=O)C(=O)NC1=O (stereo unspecified)	inactive
Cc1cc(N=Nc2ccccc2C)ccc1N	active
O=NO	active
N#CN=C(N)N	inactive; active
CC(COc1ccc(C(C)(C)C)cc1)OS(=O)OCCCl (stereo unspecified)	active
NC(N)=NC(N)=NCCc1ccccc1	inactive
Cn1cc(C(=O)O)c(=O)c2ccc(/C=C/c3ccc([N+](=O)[O-])o3)nc21	active; inactive
NCCNc1cccc2ccccc12	inactive; active
COP(=S)(OC)Oc1ccc([N+](=O)[O-])cc1	inactive
CCCCN(CC)C(=O)SCCC	inactive
CC(=O)Nc1ccc(OCC(O)CNC(C)C)cc1 (stereo unspecified)	inactive
CC(C)CCC[C@@H](C)[C@H]1CC[C@H]2[C@@H]3CC=C4C[C@@H](OC(=O)Cc5ccc(N(CCCl)CCCl)cc5)CC[C@]4(C)[C@H]3CC[C@]12C	active
CN(C)c1ccc(N=NS(=O)(=O)O)cc1	inactive

Compound	outcome
C=C1C[C@@]23CC[C@H]4[C@@](C)(CCC[C@@]4(C)C(=O)O[C@@H]4O[C@H](CO)[C@@H](O)[C@H](O)[C@H]4O)[C@@H]2CC[C@]1(O[C@@H]1O[C@H](CO)[C@@H](O)[C@H](O)[C@H]1O[C@@H]1O[C@H](CO)[C@@H](O)[C@H](O)[C@H]1O)C3	inactive
O=c1ccc(=O)[nH][nH]1	inactive; active
O=NN(CCO)C(=O)NCCCl	active
COP(=O)(OC)O/C(=C\Cl)c1cc(Cl)c(Cl)cc1Cl	active; inactive
Clc1ccc(Sc2cc(Cl)c(Cl)cc2Cl)cc1	inactive
O=C1CCCCC1	inactive
Nc1ccccc1C(=O)OC/C=C/c1ccccc1	active
CCN(CC)C(C)=O	active
CC(CN1c2ccccc2Sc2ccccc21)N(C)C (stereo unspecified)	inactive
CNC(=O)Oc1cccc2c1OC(C)(C)C2	inactive
O1[As]2O[As]3O[As]1O[As](O2)O3	inactive
O=S1OCCO1	inactive
C/C=C/c1ccc2c(c1)OCO2	inactive
CC1CN(N=O)CC(C)N1C (stereo unspecified)	active
OCC1CO1 (stereo unspecified)	active
CCCCCN(CCCCC)N=O	active; inactive
CC(C)Nc1nc(Cl)nc(NC(C)C)n1	inactive
CCN(Cc1cccc(S(=O)(=O)O)c1)c1ccc(C(=C2C=CC(=[N+](CC)Cc3cccc(S(=O)(=O)[O-])c3)C=C2)c2ccc(S(=O)(=O)O)cc2)cc1	active
COC(=O)[C@H]1[C@H]2C[C@@H]3c4[nH]c5ccccc5c4CCN3C[C@H]2C[C@@H](OC(=O)c2cc(OC)c(OC)c(OC)c2)[C@@H]1OC	inactive
Cc1ccc2ncccc2c1	inactive
C1C2OC2C2C1C1CC2C2OC12 (stereo unspecified)	inactive
